Measured values from patent US4331597A, “Penicillin compounds” (Meiji Seika Kaisha, Ltd., priority 1979, dated 1982).
Converted amounts (≈) assume the structure as drawn. Counter-ions that a name gives are not always drawn.

What was measured:
Experiment in all cases: Minimum inhibitory concentration test, agar dilution method (plate)
Format in all cases: cell-based
[1] = system: Citrobacter freundii GN346 (CSase)
Procedure: (§1) Antimicrobial test (i.e., minimum inhibitory concentration test) on compounds obtained according to this invention was conducted according to the Japan chemotherapy method, using Apalcillin (PC-904) for comparison purposes.
(§2) Minimum Inhibitory Concentration(γ/ml)
(§3) in Agar Dilution Method (Plate)

[2] = system: Escherichia coli 255
Procedure: as §1, §2, §3

[3] = system: Escherichia coli GN206
Procedure: as §1, §2, §3

[4] = system: Klebsiella pneumoniae GN69
Procedure: as §1, §2, §3

[5] = system: Proteus morganii 1510 (CSase); conditions: Morganella morganii
Procedure: as §1, §2, §3

[6] = system: Proteus vulgaris OX19
Procedure: as §1, §2, §3

[7] = system: Pseudomonas aeruginosa E-2; conditions: E2
Procedure: as §1, §2, §3

[8] = system: Pseudomonas aeruginosa M-0002; conditions: M0002
Procedure: as §1, §2, §3

[9] = system: Pseudomonas capacia M-0501; conditions: M0501
Procedure: as §1, §2, §3

[10] = system: Pseudomonas cepacia M-0513; conditions: Burkholderia cepacia, M0513
Procedure: as §1, §2, §3

[11] = system: Pseudomonas maltophilia 602; conditions: Stenotrophomonas maltophilia
Procedure: as §1, §2, §3

[12] = system: Serratia marcescens No. 1
Procedure: as §1, §2, §3

[13] = system: Serratia species GN629 (CSase)
Procedure: as §1, §2, §3

[14] = system: Staphylococcus aureus 209PJC-1; conditions: 209PJC1
Procedure: as §1, §2, §3

[15] = system: Staphylococcus aureus Smiths-424; conditions: SMITHS424
Procedure: as §1, §2, §3

[16] = system: Streptococcus faecalis ATCC6633; conditions: Enterococcus faecalis
Procedure: as §1, §2, §3

Row | MIC [1] [µg/mL] | MIC [2] [µg/mL] | MIC [3] [µg/mL] | MIC [4] [µg/mL] | MIC [5] [µg/mL] | MIC [6] [µg/mL] | MIC [7] [µg/mL] | MIC [8] [µg/mL] | MIC [9] [µg/mL] | MIC [10] [µg/mL] | MIC [11] [µg/mL] | MIC [12] [µg/mL] | MIC [13] [µg/mL] | MIC [14] [µg/mL] | MIC [15] [µg/mL] | MIC [16] [µg/mL] | SMILES
1 | 12.5 (≈ 24 µM) | 50 (≈ 95.9 µM) | 25 (≈ 47.9 µM) | 50 (≈ 95.9 µM) | 100 (≈ 192 µM) | 0.39 (≈ 0.748 µM) | 1.56 (≈ 2.99 µM) | 0.78 (≈ 1.5 µM) | 12.5 (≈ 24 µM) | 25 (≈ 47.9 µM) | 50 (≈ 95.9 µM) | 1.56 (≈ 2.99 µM) | 25 (≈ 47.9 µM) | 0.39 (≈ 0.748 µM) | 0.39 (≈ 0.748 µM) | 6.25 (≈ 12 µM) | CC1(C)S[C@@H]2[C@H](NC(=O)[C@H](NC(=O)c3cnc4cccnc4c3O)c3ccccc3)C(=O)N2[C@H]1C(=O)O [PC-904, reference compound]
2 | 6.25 | 12.5 | 3.13 | 25 | 100 | 0.39 | 3.13 | 0.78 | 12.5 | 12.5 | 12.5 | 0.78 | 6.25 | 0.39 | 0.39 | 3.13 | COc1ccc(-c2ccc(C(=O)N[C@@H](C(=O)N[C@@H]3C(=O)N4[C@@H]3SC(C)(C)[C@@H]4C(=O)O)c3ccc(O)cc3)c(=O)[nH]2)cc1OC [Example 1, sodium salt of 6-(3,4-dimethoxyphenyl)-1,2-dihydro-2-oxonicotinylamoxycillin]
3 | 1.56 (≈ 2.06 µM) | 6.25 (≈ 8.24 µM) | 1.56 (≈ 2.06 µM) | 25 (≈ 32.9 µM) | 50 (≈ 65.9 µM) | 0.39 (≈ 0.514 µM) | 6.25 (≈ 8.24 µM) | 3.13 (≈ 4.12 µM) | 3.13 (≈ 4.12 µM) | 3.13 (≈ 4.12 µM) | 25 (≈ 32.9 µM) | 1.56 (≈ 2.06 µM) | 6.25 (≈ 8.24 µM) | 0.39 (≈ 0.514 µM) | 0.2 (≈ 0.264 µM) | 3.13 (≈ 4.12 µM) | COc1ccc(COc2ccc(-c3ccc(C(=O)N[C@@H](C(=O)N[C@@H]4C(=O)N5[C@@H]4SC(C)(C)[C@@H]5C(=O)O)c4ccc(O)cc4)c(=O)[nH]3)cc2OC)cc1OC [Example 3, 6-[4-(3,4-dimethoxybenzyloxy)-3-methoxyphenyl]-1,2-dihydro-2-oxonicotinyl amoxycillin]
